We go through two sequences from article PMC9221748, “Construction and Characterization of T7 Bacteriophages Harboring Apidaecin-Derived Sequences” (Current Issues in Molecular Biology, 2022).

No end group written: not given here.

The subject of the test is E. coli Rosetta DE3 pLysS. As to the kind of experiment: MIC, liquid broth microdilution assay. Type of test: cell-based, Escherichia coli. The following applies: 25% MHBII, 7.5 × 10^6 CFU/mL, 20 ± 2 h at 37 °C, turbidity at 600 nm, at least twice in triplicates. Here is the method: Minimal inhibitory concentrations (MICs) were determined at least twice in triplicates, using a liquid broth microdilution assay in sterile 96-well plates and a total volume of 100 μL per well. Aqueous peptide solutions were serially two-fold diluted in 50 µL of 25% MHBII or LB medium (Luria/Miller). Overnight cultures were diluted in 25% MHBII or LB medium (Luria/Miller) to 1.5 × 10^7 cells per mL and an aliquot of 50 μL was added to each well. The final cell count in each well was 7.5 × 10^6 CFU/mL. The plates were incubated for 20 ± 2 h at 37 °C. The turbidity of each well was measured at 600 nm.
In general terms: Dilution methods test growth across graded concentrations, often in twofold steps.

With GNNRPIYIPRPRPPHPRPIRV [Api805], the MIC – broadly, the smallest concentration in the dilution series that meets the test's criterion for growth inhibition – turned out to be 4 µg/mL.

With GNNRPVYIPRPRPPHPRL [Api801], the MIC is given as 2 µg/mL.
